Assay results reported in publication PMC12586182 (Frontiers in Oncology, 2025).

Experiments:
DDR2 = target: T1, DDR2 (Homo sapiens, UniProt Q16832); experiment: Kinase panel profiling at 1 µmol/L (mobility shift assay, Carna); assay type: biochemical; conditions: 1 µmol/L of BTK inhibitor
T1 construct: purchased Carna Biosciences
T1 sequence (Q16832 22-855): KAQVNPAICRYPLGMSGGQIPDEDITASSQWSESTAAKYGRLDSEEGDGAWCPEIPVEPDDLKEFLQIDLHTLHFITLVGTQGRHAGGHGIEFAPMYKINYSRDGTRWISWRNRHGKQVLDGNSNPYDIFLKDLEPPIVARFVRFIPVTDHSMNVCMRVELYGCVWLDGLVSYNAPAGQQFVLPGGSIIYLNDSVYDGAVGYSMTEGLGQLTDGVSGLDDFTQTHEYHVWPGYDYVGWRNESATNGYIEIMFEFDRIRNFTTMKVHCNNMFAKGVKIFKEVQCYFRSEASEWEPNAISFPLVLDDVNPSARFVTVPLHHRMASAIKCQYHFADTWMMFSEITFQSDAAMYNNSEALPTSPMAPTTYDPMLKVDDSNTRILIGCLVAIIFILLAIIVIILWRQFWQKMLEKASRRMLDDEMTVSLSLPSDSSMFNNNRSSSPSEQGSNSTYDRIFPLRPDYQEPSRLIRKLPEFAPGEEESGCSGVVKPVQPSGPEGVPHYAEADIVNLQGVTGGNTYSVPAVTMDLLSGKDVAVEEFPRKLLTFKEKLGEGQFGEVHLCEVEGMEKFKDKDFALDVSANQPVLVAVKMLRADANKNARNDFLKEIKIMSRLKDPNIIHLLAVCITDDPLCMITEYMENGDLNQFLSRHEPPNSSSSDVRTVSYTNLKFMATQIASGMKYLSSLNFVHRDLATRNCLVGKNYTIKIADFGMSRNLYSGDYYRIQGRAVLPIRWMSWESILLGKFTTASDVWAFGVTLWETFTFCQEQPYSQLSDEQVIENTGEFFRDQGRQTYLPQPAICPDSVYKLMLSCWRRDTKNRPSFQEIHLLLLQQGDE

FES = target: T2, FES (Homo sapiens, UniProt P07332); experiment: as above; assay type: biochemical; conditions: 1 µmol/L of BTK inhibitor
T2 construct: purchased Carna Biosciences
T2 sequence (P07332 whole entry): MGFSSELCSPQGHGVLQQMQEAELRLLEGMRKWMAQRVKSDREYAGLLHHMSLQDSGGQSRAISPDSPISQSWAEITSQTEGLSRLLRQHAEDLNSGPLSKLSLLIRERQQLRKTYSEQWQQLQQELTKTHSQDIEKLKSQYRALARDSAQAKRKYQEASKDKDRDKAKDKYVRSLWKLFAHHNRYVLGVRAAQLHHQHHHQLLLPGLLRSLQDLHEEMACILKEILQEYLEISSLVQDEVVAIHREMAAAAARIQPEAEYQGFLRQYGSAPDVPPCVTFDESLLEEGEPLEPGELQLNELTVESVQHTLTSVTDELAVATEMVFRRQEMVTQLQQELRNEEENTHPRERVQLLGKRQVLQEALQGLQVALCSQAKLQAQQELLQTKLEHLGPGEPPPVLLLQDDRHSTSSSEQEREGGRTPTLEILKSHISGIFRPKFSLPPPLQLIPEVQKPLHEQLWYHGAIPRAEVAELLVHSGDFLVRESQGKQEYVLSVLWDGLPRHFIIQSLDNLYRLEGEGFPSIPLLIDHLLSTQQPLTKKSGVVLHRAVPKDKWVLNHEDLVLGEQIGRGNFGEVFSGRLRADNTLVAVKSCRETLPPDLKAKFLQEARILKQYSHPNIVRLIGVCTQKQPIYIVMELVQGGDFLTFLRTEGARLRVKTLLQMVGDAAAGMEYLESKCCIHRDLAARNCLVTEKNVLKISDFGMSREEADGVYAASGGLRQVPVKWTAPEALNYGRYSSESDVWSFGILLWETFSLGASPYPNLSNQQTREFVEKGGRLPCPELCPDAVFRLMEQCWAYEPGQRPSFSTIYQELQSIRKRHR

HER2 = target: T3, HER2 (Homo sapiens, UniProt P04626); experiment: as above; assay type: biochemical; conditions: 1 µmol/L of BTK inhibitor
T3 construct: purchased Carna Biosciences
T3 sequence (P04626 23-1255): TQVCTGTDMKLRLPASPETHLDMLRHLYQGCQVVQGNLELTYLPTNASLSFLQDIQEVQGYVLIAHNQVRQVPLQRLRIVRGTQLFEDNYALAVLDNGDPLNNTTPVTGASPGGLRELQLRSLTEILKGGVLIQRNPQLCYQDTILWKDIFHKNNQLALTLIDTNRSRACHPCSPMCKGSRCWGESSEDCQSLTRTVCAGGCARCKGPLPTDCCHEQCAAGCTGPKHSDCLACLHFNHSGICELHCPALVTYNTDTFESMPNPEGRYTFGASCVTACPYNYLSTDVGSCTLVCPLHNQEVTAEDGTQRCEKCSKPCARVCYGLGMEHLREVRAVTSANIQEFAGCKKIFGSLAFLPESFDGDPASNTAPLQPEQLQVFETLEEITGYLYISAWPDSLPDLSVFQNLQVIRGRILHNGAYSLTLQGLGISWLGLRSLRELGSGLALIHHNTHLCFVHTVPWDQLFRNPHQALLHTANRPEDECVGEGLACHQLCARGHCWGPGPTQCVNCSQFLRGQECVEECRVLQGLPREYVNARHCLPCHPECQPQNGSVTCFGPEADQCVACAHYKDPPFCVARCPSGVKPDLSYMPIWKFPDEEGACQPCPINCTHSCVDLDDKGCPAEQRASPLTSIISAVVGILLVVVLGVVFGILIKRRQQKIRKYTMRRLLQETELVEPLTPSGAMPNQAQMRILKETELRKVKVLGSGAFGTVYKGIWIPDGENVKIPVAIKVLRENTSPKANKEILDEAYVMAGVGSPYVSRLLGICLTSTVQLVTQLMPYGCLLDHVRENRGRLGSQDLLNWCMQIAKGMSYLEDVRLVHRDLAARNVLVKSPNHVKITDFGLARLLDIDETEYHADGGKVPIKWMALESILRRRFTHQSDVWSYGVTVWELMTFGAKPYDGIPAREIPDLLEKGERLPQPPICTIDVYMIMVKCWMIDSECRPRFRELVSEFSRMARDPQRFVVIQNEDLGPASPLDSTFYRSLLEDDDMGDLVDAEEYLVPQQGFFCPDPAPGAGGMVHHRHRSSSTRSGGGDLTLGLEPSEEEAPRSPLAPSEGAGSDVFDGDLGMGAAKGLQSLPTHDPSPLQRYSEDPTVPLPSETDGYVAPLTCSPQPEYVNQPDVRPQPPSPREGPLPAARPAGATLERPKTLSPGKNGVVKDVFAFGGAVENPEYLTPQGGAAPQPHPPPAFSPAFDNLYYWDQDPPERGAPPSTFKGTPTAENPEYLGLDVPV

CaMK1α = target: T4, CaMK1α (Homo sapiens, UniProt Q14012); experiment: as above; assay type: biochemical; conditions: 1 µmol/L of BTK inhibitor
T4 construct: purchased Carna Biosciences
T4 sequence (Q14012 whole entry): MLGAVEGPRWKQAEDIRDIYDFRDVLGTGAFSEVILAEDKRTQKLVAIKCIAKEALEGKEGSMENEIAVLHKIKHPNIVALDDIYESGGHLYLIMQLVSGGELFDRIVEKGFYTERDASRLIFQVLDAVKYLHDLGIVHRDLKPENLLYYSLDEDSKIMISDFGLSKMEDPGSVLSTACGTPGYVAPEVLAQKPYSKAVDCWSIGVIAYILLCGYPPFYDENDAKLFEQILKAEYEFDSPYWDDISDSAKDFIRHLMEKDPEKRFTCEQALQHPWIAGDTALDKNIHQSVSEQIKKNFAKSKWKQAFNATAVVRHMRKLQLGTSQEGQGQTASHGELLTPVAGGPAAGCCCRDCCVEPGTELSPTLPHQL

JNK3 = target: T5, JNK3 (Homo sapiens, UniProt P53779); experiment: as above; assay type: biochemical; conditions: 1 µmol/L of BTK inhibitor
T5 construct: purchased Carna Biosciences
T5 sequence (P53779 whole entry): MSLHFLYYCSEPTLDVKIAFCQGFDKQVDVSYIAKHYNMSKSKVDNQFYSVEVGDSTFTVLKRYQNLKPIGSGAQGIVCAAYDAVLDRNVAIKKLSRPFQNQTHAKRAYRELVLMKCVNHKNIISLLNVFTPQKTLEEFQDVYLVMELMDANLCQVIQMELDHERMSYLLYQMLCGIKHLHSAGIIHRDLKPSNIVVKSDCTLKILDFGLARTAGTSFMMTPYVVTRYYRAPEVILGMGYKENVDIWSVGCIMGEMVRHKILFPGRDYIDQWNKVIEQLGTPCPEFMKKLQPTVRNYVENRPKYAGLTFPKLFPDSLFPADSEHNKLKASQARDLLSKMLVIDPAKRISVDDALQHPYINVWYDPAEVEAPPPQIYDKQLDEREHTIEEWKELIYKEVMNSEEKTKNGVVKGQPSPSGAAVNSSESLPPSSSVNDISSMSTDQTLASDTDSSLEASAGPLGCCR

MNK1 = target: T6, MNK1 (Homo sapiens, UniProt Q9BUB5); experiment: as above; assay type: biochemical; conditions: 1 µmol/L of BTK inhibitor
T6 construct: purchased Carna Biosciences
T6 sequence (Q9BUB5 whole entry): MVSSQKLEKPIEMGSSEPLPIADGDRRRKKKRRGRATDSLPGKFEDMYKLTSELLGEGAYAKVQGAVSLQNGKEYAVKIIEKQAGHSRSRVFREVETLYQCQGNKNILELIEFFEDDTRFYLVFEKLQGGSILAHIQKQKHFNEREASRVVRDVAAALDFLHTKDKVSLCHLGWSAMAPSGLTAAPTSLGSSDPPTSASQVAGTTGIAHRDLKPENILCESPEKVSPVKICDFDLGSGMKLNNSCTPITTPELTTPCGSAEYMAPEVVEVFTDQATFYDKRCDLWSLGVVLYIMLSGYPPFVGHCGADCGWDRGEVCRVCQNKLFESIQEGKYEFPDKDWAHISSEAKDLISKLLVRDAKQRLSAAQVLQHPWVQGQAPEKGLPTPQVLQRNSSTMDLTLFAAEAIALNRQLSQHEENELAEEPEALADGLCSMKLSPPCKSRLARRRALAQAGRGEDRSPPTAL

NIM1K = target: T7, NIM1K (Homo sapiens, UniProt Q8IY84); experiment: as above; assay type: biochemical; conditions: 1 µmol/L of BTK inhibitor
T7 construct: purchased Carna Biosciences

PKCδ = target: T8, PKCδ (Homo sapiens, UniProt Q05655); experiment: as above; assay type: biochemical; conditions: 1 µmol/L of BTK inhibitor
T8 construct: purchased Carna Biosciences
T8 sequence (Q05655 whole entry): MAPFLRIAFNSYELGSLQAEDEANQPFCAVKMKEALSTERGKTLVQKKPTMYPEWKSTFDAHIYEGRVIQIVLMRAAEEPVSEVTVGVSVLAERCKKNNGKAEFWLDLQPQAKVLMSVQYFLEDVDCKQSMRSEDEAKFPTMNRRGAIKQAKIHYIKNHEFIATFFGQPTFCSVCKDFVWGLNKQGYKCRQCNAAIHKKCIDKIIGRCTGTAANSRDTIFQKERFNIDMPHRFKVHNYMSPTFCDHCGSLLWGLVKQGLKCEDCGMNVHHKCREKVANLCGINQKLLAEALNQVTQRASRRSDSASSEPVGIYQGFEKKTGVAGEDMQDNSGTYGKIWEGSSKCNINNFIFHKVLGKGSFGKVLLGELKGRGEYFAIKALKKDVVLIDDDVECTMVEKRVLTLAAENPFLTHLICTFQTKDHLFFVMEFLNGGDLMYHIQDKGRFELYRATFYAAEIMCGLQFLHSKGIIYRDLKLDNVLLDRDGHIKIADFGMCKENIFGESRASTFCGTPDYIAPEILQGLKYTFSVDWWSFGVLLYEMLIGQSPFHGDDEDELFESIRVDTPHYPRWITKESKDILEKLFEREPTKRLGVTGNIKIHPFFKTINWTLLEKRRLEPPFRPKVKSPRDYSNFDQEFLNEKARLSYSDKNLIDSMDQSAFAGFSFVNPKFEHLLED

TAOK2 = target: T9, TAOK2 (Homo sapiens, UniProt Q9UL54); experiment: as above; assay type: biochemical; conditions: 1 µmol/L of BTK inhibitor
T9 construct: purchased Carna Biosciences
T9 sequence (Q9UL54 1-1235): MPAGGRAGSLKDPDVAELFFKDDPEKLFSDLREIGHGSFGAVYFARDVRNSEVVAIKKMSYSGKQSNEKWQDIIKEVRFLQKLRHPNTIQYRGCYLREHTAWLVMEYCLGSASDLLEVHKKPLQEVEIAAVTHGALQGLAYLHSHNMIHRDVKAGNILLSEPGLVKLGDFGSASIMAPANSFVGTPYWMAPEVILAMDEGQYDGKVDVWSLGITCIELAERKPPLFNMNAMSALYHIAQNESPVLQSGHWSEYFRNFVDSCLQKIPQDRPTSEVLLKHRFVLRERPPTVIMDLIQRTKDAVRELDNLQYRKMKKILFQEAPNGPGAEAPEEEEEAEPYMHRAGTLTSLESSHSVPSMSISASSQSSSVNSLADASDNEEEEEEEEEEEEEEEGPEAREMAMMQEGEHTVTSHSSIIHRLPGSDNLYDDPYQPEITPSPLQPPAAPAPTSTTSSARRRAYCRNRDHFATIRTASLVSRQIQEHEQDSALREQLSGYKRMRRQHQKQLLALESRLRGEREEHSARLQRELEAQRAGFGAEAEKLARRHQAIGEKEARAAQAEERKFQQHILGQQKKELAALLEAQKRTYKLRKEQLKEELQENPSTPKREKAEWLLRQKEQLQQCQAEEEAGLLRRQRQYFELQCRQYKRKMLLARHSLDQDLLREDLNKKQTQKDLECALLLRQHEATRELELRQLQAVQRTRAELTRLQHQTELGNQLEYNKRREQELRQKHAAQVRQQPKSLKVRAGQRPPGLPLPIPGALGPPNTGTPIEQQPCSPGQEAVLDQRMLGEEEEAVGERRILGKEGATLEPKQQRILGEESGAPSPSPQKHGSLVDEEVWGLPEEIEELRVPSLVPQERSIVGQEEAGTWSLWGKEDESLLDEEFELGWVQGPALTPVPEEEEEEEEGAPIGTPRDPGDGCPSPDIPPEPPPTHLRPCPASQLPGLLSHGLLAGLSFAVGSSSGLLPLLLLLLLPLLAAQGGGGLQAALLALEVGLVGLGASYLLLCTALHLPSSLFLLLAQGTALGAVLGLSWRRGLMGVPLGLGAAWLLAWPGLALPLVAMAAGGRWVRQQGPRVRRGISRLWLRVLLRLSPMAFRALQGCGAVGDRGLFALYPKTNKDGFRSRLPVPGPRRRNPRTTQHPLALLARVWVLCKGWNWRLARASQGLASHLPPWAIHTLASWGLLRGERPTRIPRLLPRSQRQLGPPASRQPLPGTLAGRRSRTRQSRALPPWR

FGFR3 = FGFR3 (Homo sapiens, UniProt P22607); experiment: Kinase enzyme activity assay (mobility shift assay, Carna); conditions: for Percentage inhibition of kinase enzyme activity: FGFR3, 1 µmol/L of BTK inhibitor
FGFR3, sequence (P22607 23-806): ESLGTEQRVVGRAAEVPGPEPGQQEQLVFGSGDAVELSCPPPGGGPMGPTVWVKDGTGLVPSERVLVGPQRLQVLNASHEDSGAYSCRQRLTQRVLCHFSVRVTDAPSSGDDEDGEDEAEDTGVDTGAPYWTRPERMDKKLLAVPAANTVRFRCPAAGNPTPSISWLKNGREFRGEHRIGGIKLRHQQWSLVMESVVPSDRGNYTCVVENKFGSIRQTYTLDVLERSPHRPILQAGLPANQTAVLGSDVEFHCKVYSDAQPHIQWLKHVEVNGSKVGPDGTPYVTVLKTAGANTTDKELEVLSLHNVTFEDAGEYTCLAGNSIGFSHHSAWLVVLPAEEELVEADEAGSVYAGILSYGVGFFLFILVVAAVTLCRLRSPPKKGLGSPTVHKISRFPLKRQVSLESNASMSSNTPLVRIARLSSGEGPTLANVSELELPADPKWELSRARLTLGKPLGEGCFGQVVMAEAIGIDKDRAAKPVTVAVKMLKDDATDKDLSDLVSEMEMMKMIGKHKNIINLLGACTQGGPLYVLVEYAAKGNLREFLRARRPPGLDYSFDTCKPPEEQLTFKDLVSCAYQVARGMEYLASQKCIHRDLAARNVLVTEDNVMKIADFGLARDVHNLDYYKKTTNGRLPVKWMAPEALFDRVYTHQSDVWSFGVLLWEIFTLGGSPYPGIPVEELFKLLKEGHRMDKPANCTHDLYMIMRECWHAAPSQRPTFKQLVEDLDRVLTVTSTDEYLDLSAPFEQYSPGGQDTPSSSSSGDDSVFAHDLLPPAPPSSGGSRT

SMILES | Percentage inhibition of kinase enzyme activity (DDR2) [%] | Percentage inhibition of kinase enzyme activity (FES) [%] | Percentage inhibition of kinase enzyme activity (HER2) [%] | Percentage inhibition of kinase enzyme activity (CaMK1α) [%] | Percentage inhibition of kinase enzyme activity (JNK3) [%] | Percentage inhibition of kinase enzyme activity (MNK1) [%] | Percentage inhibition of kinase enzyme activity (NIM1K) [%] | Percentage inhibition of kinase enzyme activity (PKCδ) [%] | Percentage inhibition of kinase enzyme activity (TAOK2) [%] | IC50 (FGFR3) [nM] | Percentage inhibition of kinase enzyme activity (FGFR3) [%]
O=C(c1ccc(Oc2ccccc2)cc1Cl)c1c[nH]c2ncnc(N[C@@H]3CC[C@@H](CO)OC3)c12 [nemtabrutinib] | 93.92 | 93.26 | 99.89 | 11.41 | -2.93 | 7.10 | -2.21 | 6.96 | 41.31 | 70.1 | 86.25
CC#CC(=O)N1CCC[C@H]1c1nc(-c2ccc(C(=O)Nc3ccccn3)cc2)c2c(N)nccn12 [acalabrutinib] | 6.23 | -6.35 | 16.11 | -4.29 | -0.89 | 11.59 | -7.33 | -8.64 | 5.31 |  | -1.31
COc1ccc(F)cc1C(=O)NCc1ccc(-c2nn([C@@H](C)C(F)(F)F)c(N)c2C(N)=O)cc1 [pirtobrutinib] | 9.58 | 11.87 | 35.83 | -9.87 | 0.49 | 2.15 | -1.08 | -3.98 | 1.74 |  | 1.40
C=CC(=O)N1CCC([C@@H]2CCNc3c(C(N)=O)c(-c4ccc(Oc5ccccc5)cc4)nn32)CC1 [zanubrutinib] |  | 4.53 | 98.58 |  |  |  |  |  |  |  | 6.11
C=CC(=O)N1CCC[C@@H](n2nc(-c3ccc(Oc4ccccc4)cc3)c3c(N)ncnc32)C1 [ibrutinib] | 17.34 | 0.68 | 100.31 | 13.82 | 0.98 | 14.52 | -2.33 | 0.52 | 5.25 |  | 81.85
